Measurements as given in the NIST ThermoML archive (doi:10.1021/je7005538).
Where “and” joins values, the source holds several entries; their conditions need not be identical. Equal entries are not always repeated.

Experiment: xn = mol fraction of the nth substance listed
Conditions: Fluid (supercritical or subcritical phases), Vibrating tube method

Cc1c(C)c2c(c(C)c1O)CC[C@@](C)(CCC[C@H](C)CCC[C@H](C)CCCC(C)C)O2 [(+)-α-tocopherol] + O=C=O
mass density
Conditions	x1 = 0.0004	x1 = 0.00042	x1 = 0.00043	x1 = 0.0005	x1 = 0.00059	x1 = 0.00074	x1 = 0.00081
308.15 K, 10000 kPa	720.4 kg/m3	718.9 kg/m3 and 720.9 kg/m3	720.6 kg/m3	720.3 kg/m3	720.2 kg/m3	721.2 kg/m3	720.9 kg/m3
308.15 K, 15000 kPa	817.8 kg/m3	816.9 kg/m3 and 818.1 kg/m3	818.2 kg/m3	817.9 kg/m3	817.8 kg/m3	818.6 kg/m3	818.7 kg/m3
308.15 K, 20000 kPa	867.2 kg/m3	866.7 kg/m3 and 867.6 kg/m3	867.5 kg/m3	867.4 kg/m3	867.3 kg/m3	868 kg/m3	868.2 kg/m3
308.15 K, 30000 kPa	929.5 kg/m3	929.3 kg/m3 and 929.6 kg/m3	929.6 kg/m3	929.6 kg/m3	929.6 kg/m3	930 kg/m3	930.1 kg/m3
308.15 K, 40000 kPa	971.9 kg/m3	971.9 kg/m3 and 972 kg/m3	972 kg/m3	972 kg/m3	972 kg/m3	972.2 kg/m3	972.3 kg/m3
313.15 K, 10000 kPa	639 kg/m3	639 kg/m3 and 638.8 kg/m3	638.7 kg/m3	639.4 kg/m3	638.9 kg/m3	640 kg/m3	639.8 kg/m3
313.15 K, 15000 kPa	782.3 kg/m3	782.6 kg/m3 and 782.3 kg/m3	782.5 kg/m3	782.8 kg/m3	782.4 kg/m3	783.3 kg/m3	783.1 kg/m3
313.15 K, 20000 kPa	841 kg/m3	841.2 kg/m3 and 840.9 kg/m3	841.2 kg/m3	841.3 kg/m3	841.1 kg/m3	841.7 kg/m3	841.6 kg/m3
313.15 K, 30000 kPa	910.2 kg/m3	910.3 kg/m3 and 910.1 kg/m3	910.3 kg/m3	910.4 kg/m3	910.3 kg/m3	910.7 kg/m3	910.6 kg/m3
313.15 K, 40000 kPa	955.9 kg/m3	955.9 kg/m3 and 955.7 kg/m3	955.9 kg/m3	955.9 kg/m3	956 kg/m3	956.1 kg/m3	956 kg/m3
323.15 K, 10000 kPa	398.5 kg/m3	398.3 kg/m3 and 398.5 kg/m3	398.3 kg/m3	398.4 kg/m3	398.8 kg/m3	398.9 kg/m3	398.7 kg/m3
323.15 K, 15000 kPa	703.6 kg/m3	703.1 kg/m3 and 703.4 kg/m3	703.4 kg/m3	703.5 kg/m3	703.4 kg/m3	704.1 kg/m3	704.1 kg/m3
323.15 K, 20000 kPa	786.2 kg/m3	785.8 kg/m3 and 786 kg/m3	786 kg/m3	786 kg/m3	786 kg/m3	786.6 kg/m3	786.6 kg/m3
323.15 K, 30000 kPa	871.2 kg/m3	870.9 kg/m3 and 871.1 kg/m3	871 kg/m3	871.1 kg/m3	871.1 kg/m3	871.5 kg/m3	871.6 kg/m3
323.15 K, 40000 kPa	923.3 kg/m3	923.1 kg/m3 and 923.3 kg/m3	923.3 kg/m3	923.3 kg/m3	923.2 kg/m3	923.6 kg/m3	923.6 kg/m3
333.15 K, 10000 kPa	297.2 kg/m3	297.1 kg/m3 and 296.8 kg/m3	296.9 kg/m3	297.1 kg/m3	297.3 kg/m3	297.7 kg/m3	297.7 kg/m3
333.15 K, 15000 kPa	608.6 kg/m3	608.9 kg/m3 and 608.8 kg/m3	608.7 kg/m3	608.7 kg/m3	609.3 kg/m3	609.3 kg/m3	609.4 kg/m3
333.15 K, 20000 kPa	725.7 kg/m3	725.6 kg/m3 and 725.5 kg/m3	725.5 kg/m3	725.7 kg/m3	725.8 kg/m3	726.1 kg/m3	726.2 kg/m3
333.15 K, 30000 kPa	830.3 kg/m3	830.3 kg/m3 and 830.2 kg/m3	830.2 kg/m3	830.3 kg/m3	830.5 kg/m3	830.7 kg/m3	830.7 kg/m3
333.15 K, 40000 kPa	890.2 kg/m3	890.2 kg/m3 and 890.1 kg/m3	890.1 kg/m3	890.1 kg/m3	890.3 kg/m3	890.5 kg/m3	890.5 kg/m3
